Results: patent US8809280B2, “Therapeutic peptides” (Lytix Biopharma AS, priority 2009, dated 2014)
Converted amounts (≈) assume the structure as drawn.

Assays:
Format in all cases: cell-based
[1] = tested on: human red blood cells; experiment: cells; conditions: Homo sapiens, Erythrocyte; Example 2; highest concentration tested 1000 μg/ml; * low solubility in the test media; read-out: Toxicity RBC (EC50)
How it was run: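 Washed heparinized RBCs, diluted to 10% hematocrit then to 1% v/v final, incubated with compounds in PBS (1–1000 μg/mL) for 1 h at 37 °C with agitation. Hemoglobin release read at 405 nm against PBS (0%) and 0.1% Triton X-100 (100%); value reported is concentration giving 50% hemolysis.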

[2] = tested on: Staphylococcus aureus (ATTC 25923); experiment: microbe, parasite or virus in culture; conditions: Example 2, values separated by / are repeat tests
How it was run: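 Di-TFA salts tested in duplicate at 0.5–200 μg/ml against exponential-phase bacteria at 2×10^6 cfu/ml grown in 2% peptone water. Growth judged by well turbidity, with no-peptide and gentamicin controls.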

[3] = tested on: A20; experiment: cells
Protocol: Cancer Cell Lines A20 or MethA Anticancer assays: 500 μg/ml

[4] = tested on: methicillin resistant Staphylococcus epidermidis (ATCC 27626); experiment: microbe, parasite or virus in culture; conditions: Example 2, values separated by / are repeat tests
How it was run: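 Exponentially grown bacteria (2% peptone water) at 2×10^6 cfu/ml exposed in duplicate to di-TFA salts at 0.5–200 μg/ml. Growth or no growth judged by well turbidity; no-peptide and gentamicin controls included.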

[5] = tested on: Escherichia coli (ATTC 25922); experiment: microbe, parasite or virus in culture; conditions: Escherichia coli, Example 2; values separated by / are repeat tests; read-out: Antimicrobial potency (MIC) E. coli
How it was run: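 Broth dilution in 2% Bacto Peptone water, inoculum 2×10^6 cfu/ml of exponential-phase bacteria; compounds (di-TFA salts) tested in duplicate at 200 down to 0.5 μg/ml. Growth judged by well turbidity, with no-peptide negative and gentamicin positive controls.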

[6] = tested on: methicillin resistant Staphylococcus aureus (ATCC 33591); experiment: microbe, parasite or virus in culture; conditions: Staphylococcus aureus, ATCC 33591 / MRSA, Example 2; values separated by / are repeat tests; read-out: Antimicrobial potency (MIC) MRSA
How it was run: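 Di-TFA salts tested in duplicate at 200 down to 0.5 μg/ml against exponentially grown bacteria at 2×10^6 cfu/ml. Growth judged by well turbidity, with no-peptide and gentamicin controls.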

[7] = tested on: MRC-5; experiment: Toxicity assay MRC-5; conditions: highest concentration tested 500 μg/ml
Protocol: Cells for Toxicity Studies Used MRC-5 and human RBC MRC-5 assay: 500 μg/ml

[8] = tested on: Ramos; experiment: Compound 7 panel screening; conditions: Homo sapiens, Burkitt's lymphoma
Protocol: (§1) Compound 7 described in Example 2 was screened against two normal cell lines and nine cancer cell lines.
(§2) All cell lines were of human origin. Stock solution of compound 7 was dissolved in assay media containing 10% DMSO. Three parallel experiments were performed against each cell line.

[9] = tested on: FEMX; experiment: Compound 7 panel screening; conditions: Homo sapiens, Fem-X, skin melanoma
Protocol: as §1, §2

[10] = tested on: MRC-5; experiment: Compound 7 panel screening; conditions: Homo sapiens, MRC5, lung, normal, fibroblast
Protocol: as §1, §2

[11] = tested on: HT-29; experiment: Compound 7 panel screening; conditions: Homo sapiens, colon colorectal adenocarcinoma
Protocol: as §1, §2

[12] = tested on: UT-SCC-24A; experiment: Compound 7 panel screening; conditions: Homo sapiens, tongue squamous oral carcinoma
Protocol: as §1, §2

[13] = tested on: MDA-MB435; experiment: Compound 7 panel screening; conditions: Homo sapiens, MDA-MB-435, breast carcinoma
Protocol: as §1, §2

[14] = tested on: HUV-EC-C; experiment: Compound 7 panel screening; conditions: Homo sapiens, umbilical vein, normal, endothelial
Protocol: as §1, §2

[15] = tested on: DU-145; experiment: Compound 7 panel screening; conditions: Homo sapiens, prostate carcinoma
Protocol: as §1, §2

[16] = tested on: OVCAR-3; experiment: Compound 7 panel screening; conditions: Homo sapiens, ovary adenocarcinoma
Protocol: as §1, §2

[17] = tested on: UT-SCC-34A; experiment: Compound 7 panel screening; conditions: Homo sapiens, supraglottic larynx squamous oral carcinoma
Protocol: as §1, §2

[18] = tested on: Kelly; experiment: Compound 7 panel screening; conditions: Homo sapiens, neuroblastoma
Protocol: as §1, §2

Q: What does the source list for `NCCNC(=O)C(CN)(Cc1ccc2ccccc2c1)Cc1ccc2ccccc2c1` [Compound 7, 3-amino-N-(2-aminoethyl)-2,2-bis(naphthalen-2-ylmethyl)propanamide]?
A: EC50 [1]: 292 µg/mL (≈ 710 µM); Antimicrobial potency (MIC) S. aureus [2]: 5 µg/mL; MIC ([2]; Staphylococcus aureus, read-out: Antimicrobial potency (MIC) S. aureus): 2.5 µg/mL (≈ 6.07 µM); Anticancer potency (IC50) A20 ([3]; Example 2, highest concentration tested 500 μg/ml, * low solubility in the test media (Table 2)): 0.7 µg/mL; Anti-Cancer Selectivity MRC-5/A20 ([3]; ratio of MRC-5 to A20 values): 19.3-20; Anti-Cancer Selectivity RBC/A20 ([3]; ratio of RBC EC50 to A20 IC50): 417; Antimicrobial potency (MIC) MRSE [4]: 5 µg/mL; MIC ([4]; Staphylococcus epidermidis, ATCC 27626 / MRSE, read-out: Antimicrobial potency (MIC) MRSE): 2.5 µg/mL (≈ 6.07 µM); MIC [5]: 15 µg/mL (≈ 36.4 µM); MIC [6]: 5 µg/mL (≈ 12.1 µM); Toxicity MRC-5 ([7]; Example 2): 14 µg/mL; IC50 ([7]; Homo sapiens, MRC5, Example 2): 13.5 µg/mL (≈ 32.8 µM); IC50 [8]: 2.61 µg/mL (≈ 6.34 µM); IC50 [9]: 17.1 µg/mL (≈ 41.6 µM); IC50 [10]: 8.21 µg/mL (≈ 19.9 µM); IC50 [11]: 15.4 µg/mL (≈ 37.5 µM); IC50 [12]: 14.2 µg/mL (≈ 34.5 µM); IC50 [13]: 6.54 µg/mL (≈ 15.9 µM); IC50 [14]: 3.81 µg/mL (≈ 9.26 µM); IC50 [15]: 15.2 µg/mL (≈ 37 µM); IC50 [16]: 18.1 µg/mL (≈ 43.9 µM); IC50 [17]: 16.2 µg/mL (≈ 39.3 µM); IC50 [18]: 3.9 µg/mL (≈ 9.48 µM)
